For this assay, the system named is D. variabilis GABA-gated chloride channel. As to the kind of experiment: Two-microelectrode voltage clamp recording of Xenopus laevis oocytes injected with Dv8, Dv9 or Dv5 mRNA. It counts as cell-based, Dermacentor variabilis. The note with it: for current in response to application of compound: 1 mM, oocytes expressing Dv8 and Dv9 (SEQ. ID. NOs. 1 and 2), holding potential 0 or -30 mV; for block of the GABA-activated current: current activated by 1 mM GABA. On the procedure: Functional expression of a D. variabilis GABA-gated chloride channel was observed using MRNA encoding for the polypeptide of SEQ. ID. NOs. 1, 2, and 3 injected into Xenopus laevis oocytes. MRNA encoding for SEQ. ID. NOs. 1, 2, and 3 were obtained using the Dv8, Dv9, and Dv5 clones as described in Example 1.
Xenopus laevis oocytes were prepared and injected using standard methods previously described. (Arena et al., Mol. Pharmaco. 40:368-374, 1991; and Arena et al., Mol. Brain Res. 15:339-348, 1992.) Adult female Xenopus laevis were anesthetized with 0.17% tricaine methanesulfonate and the ovaries were surgically removed and placed in a solution consisting of (mM): NaCl 82.5, KCl 2, MgCl2 1, HEPES 5, NaPyruvate 2.5, Penicillin G. 100,000 units/L, Streptomycin Sulfate 1000 mg/L, pH 7.5 (Mod. OR-2).
Ovarian lobes were broken open, rinsed several times in Mod. OR-2, and incubated in 0.2% collagenase (Sigma, Type1) in Mod. OR-2 at room temperature with gentle shaking. After 1 hour the collagenase solution was renewed and the oocytes were incubated for an additional 30-90 minutes until approximately 50% of the oocytes were released from the ovaries. Stage V and VI oocytes were selected and placed in media containing (mM): NaCl 96, KCl 2, MgCl2 1, CaCl2 1.8, HEPES 5, NaPyruvate 2.5, theophylline 0.5, gentamicin […], pH 7.5 (ND-96) for 16-24 hours before injection. Oocytes were injected with 50 nl of Dv8, Dv9, or Dv5 RNA at a concentration of 0.2 mg/ml. Oocytes were incubated at 18° C. for 1-6 days in ND-96 before recording.
Recordings were made at room temperature in modified ND-96 consisting of (mM): NaCl 96, MgCl2 1, CaCl2 0.1, BaCl2 3.5, HEPES 5, pH 7.5. Oocytes were voltage clamped using a Dagan CA1 two microelectrode amplifier (Dagan Corporation, Minneapolis, Minn.) interfaced to a Macintosh 7100/80 computer. The current passing electrode was filled with 0.7 M KCl, 1.7 M KCitrate, and the voltage recording electrode was filled with 1 M KCl. Throughout the experiment oocytes were superfused with modified ND-96 (control solution) or with ND-96 containing potential channel activators and blockers at a rate of approximately 3 ml/min. Data were acquired at 100 Hz and filtered at 33.3 Hz using Pulse software from HEKA Elektronik (Lambrecht, Germany). All recordings were performed from a holding potential of either 0 or −30 mV.
During a 60s application of GABA approximately 50% of the current desensitized and the remaining current deactivated rapidly upon wash-out of GABA. Repeated applications of 1 mM GABA elicited similar responses. […] Oocytes injected with Dv5 mRNA responded similarly to oocytes injected with Dv8 and Dv9 mRNA (data not shown).

As for `NCCCC(=O)O` [GABA, γ-Aminobutric acid], the “current in response to application of compound” value is “rapidly activating current”. Also, for the setting “60s application of 1 mM GABA, oocytes expressing Dv8 and Dv9”, the “fraction of the current desensitized during application” value was “approximately 50%”. Turning to `N#Cc1nn(-c2c(Cl)cc(C(F)(F)F)cc2Cl)c(N)c1[S+]([O-])C(F)(F)F` (centres unmarked) [fipronil], for the setting “5 μM, FIG. 5, channel of SEQ. ID. NO. 2 (Dv9)”, the “block of the GABA-activated current” value is reported as “blocked completely”. Consider `N[C@@H](CCC(=O)O)C(=O)O` [glutamate], for which the “current in response to application of compound” value is recorded as “did not activate a current”. Take `C=C(C)[C@@H]1[C@H]2OC(=O)[C@@H]1[C@]1(O)C[C@H]3O[C@]34C(=O)O[C@H]2[C@]14C` [picrotoxinin]: where the note is “10 μM, data not shown”, the “block of the GABA-activated current” value was “blocked completely”.

The values above are taken from patent US7220832B2, “Dermacentor variabilis GABA-gated chloride channels” (priority 2000, dated 2007).
